# Key:
# soybean (GLXMA) [1] = assay: Test on herbicidal effects against weeds and phytotoxicity by foliage treatment in upland field; assay type: in vivo; conditions: 21st day
# Protocol: (§1) In a plastic pot of 11 cm in length×11 cm in width×11 cm in depth, the upland soil was filled, and seeds of corn (ZEAMX), soybean (GLXMA), greenfoxtail (SETVI), shattercane (SORVU), redroot pigweed (AMARE), Ipomoea lacunosa L. (IPOLA) and velvetleaf (ABUTH) were sown and covered with soil.
# (§2) Then, cultivation was carried out in a greenhouse for 10 days. Then, a wettable powder prepared in accordance with Formulation Example 1 was weighed so that active ingredients would be the prescribed amounts, […] spray at a rate of 500 liter per 1 hectare. Thereafter, cultivation was carried out in a greenhouse, and on the 21st day after the treatment, the herbicidal effects and phytotoxicity were examined in accordance with the standards as identified in Table 15.
# corn (ZEAMX) [2] = assay: as above; assay type: in vivo; conditions: 21st day
# Protocol: as §1, §2
# soybean (GLXMA) [3] = assay: Test 1 on herbicidal effects against weeds and phytotoxicity by upland soil treatment; assay type: in vivo; conditions: 28th day
# Protocol: (§3) In a plastic pot of 14 cm in length×23 cm in width×8 cm in depth, upland soil was filled, and seeds of soybean (GLXMA), corn (ZEAMX), Ipomoea lacunosa L. (IPOLA) and velvetleaf (ABUTH) were sown and covered with soil. […] Thereafter, cultivation was carried out in a greenhouse, and on the 28th day after the treatment, the herbicidal effects and phytotoxicity were examined in accordance with the standards as identified in Table 15.
# corn (ZEAMX) [4] = assay: as above; assay type: in vivo; conditions: 28th day
# Protocol: as §3
# [5] = system: Ipomoea lacunosa L. (IPOLA); assay: as above; assay type: in vivo; conditions: 400 gai/ha, 28th day
# Source text: (§4) In a plastic pot of 14 cm in length×23 cm in width×8 cm in depth, upland soil was filled, and seeds of soybean (GLXMA), corn (ZEAMX), Ipomoea lacunosa L. (IPOLA) and velvetleaf (ABUTH) were sown and covered with soil. A wettable powder prepared in accordance with Formulation Example 1 was weighed so that the active ingredients became the prescribed amounts, diluted with water and uniformly applied to the soil surface by means of a small size spray at a rate of 500 liters per 1 hectare. Thereafter, cultivation was carried out in a greenhouse, and on the 28th day after the treatment, the herbicidal effects and phytotoxicity were examined in accordance with the standards as identified in Table 15.
# velvetleaf (ABUTH) = assay: as above; assay type: in vivo, Abutilon theophrasti; conditions: 400 gai/ha, 28th day
# Source text: as §4
# common chickweed (STEME) [6] = assay: Test 3 on herbicidal effects against weeds and phytotoxicity by upland soil treatment; assay type: in vivo, Stellaria media; conditions: 28th day
# Source text: as §4
# (§5) The test on herbicidal effects and phytotoxicity against corn (ZEAMX), barnyardgrass (ECHCG), common chickweed (STEME) and common lambsquater (CHEAL) was carried out in the same manner as the above Test Example 1.
# barnyardgrass (ECHCG) = assay: as above; assay type: in vivo, Echinochloa crus-galli; conditions: 28th day
# Source text: as §4, §5
# [7] = system: common lambsquater (CHEAL); assay: as above; assay type: in vivo, Chenopodium album; conditions: 28th day
# Source text: as §4, §5
# corn (ZEAMX) [8] = assay: Test on effects of reducing phytotoxicity against corn by upland soil treatment; assay type: in vivo; conditions: 21st day
# Protocol: In a plastic pot of 11 cm in length×11 cm in width×11 cm in depth, upland soil was filled, and seeds of corn (ZEAMX) were sown and covered with soil. A wettable powder prepared in accordance with Formulation Example 1 was weighed so that the active ingredients would be the prescribed amounts, diluted with water and uniformly applied to the soil surface by means of a small size spray at a rate of 500 liter per 1 hectare. Then, cultivation was carried out in a greenhouse, and on the 21st day after the treatment, the phytotoxicity against corn was examined in accordance with the standards as identified in Table 15.
# common chickweed (STEME) [9] = assay: Test 2 on herbicidal effects against weeds and phytotoxicity by upland soil treatment; assay type: in vivo, Stellaria media; conditions: 28th day
# Source text: as §4
# (§6) The test on herbicidal effects and phytotoxicity against wheat (TRZAW), common chickweed (STEME) and Persian speedwell (VERPE) was carried out in the same manner as the above Test Example 1.
# [10] = system: Persian speedwell (VERPE); assay: as above; assay type: in vivo; conditions: 28th day
# Source text: as §4, §6
# wheat (TRZAW) = assay: as above; assay type: in vivo; conditions: 28th day
# Source text: as §4, §6
# italian ryegrass (LOLMU) = assay: Test 4 on herbicidal effects against weeds and phytotoxicity by upland soil treatment; assay type: in vivo; conditions: 50 gai/ha, 28th day
# Source text: as §4
# (§7) The test on herbicidal effects and phytotoxicity against wheat (TRZAW), italian ryegrass (LOLMU), common chickweed (STEME) and common lambsquater (CHEAL) was carried out in the same manner as the above Test Example 1.
# common chickweed (STEME) [11] = assay: as above; assay type: in vivo, Stellaria media; conditions: 50 gai/ha, 28th day
# Source text: as §4, §7
smiles,measurement,setting,value
CCC/C(=N\OCC)C1=C(O)CC(CC(C)SCC)CC1=O (stereo not shown) [Sethoxydim],phytotoxicity GLXMA,soybean (GLXMA) [1]; 100 gai/ha,0 (Herbicidal effect or phytotoxicity of at least 0% and less than 10%)
same,phytotoxicity ZEAMX,corn (ZEAMX) [2]; 100 gai/ha,9 (Herbicidal effect or phytotoxicity of at least 90% and less than 100%)
CN(C)C(=O)Nc1ccc(Cl)c(Cl)c1 [Diuron],phytotoxicity GLXMA,soybean (GLXMA) [3]; 800 gai/ha,8 (Herbicidal effect or phytotoxicity of at least 80% and less than 90%)
same,phytotoxicity ZEAMX,corn (ZEAMX) [4]; 800 gai/ha,8 (Herbicidal effect or phytotoxicity of at least 80% and less than 90%)
COC[C@H](C)N(C(=O)CCl)c1c(C)csc1C [Dimethenamid-P],herbicidal effect IPOLA,[5],5 (Herbicidal effect or phytotoxicity of at least 50% and less than 60%)
same,herbicidal effect ABUTH,velvetleaf (ABUTH),7 (Herbicidal effect or phytotoxicity of at least 70% and less than 80%)
CC(C)N1C(=O)c2ccccc2NS1(=O)=O [Bentazone],phytotoxicity GLXMA,soybean (GLXMA) [1]; 400 gai/ha,0 (Herbicidal effect or phytotoxicity of at least 0% and less than 10%)
same,phytotoxicity ZEAMX,corn (ZEAMX) [2]; 400 gai/ha,0 (Herbicidal effect or phytotoxicity of at least 0% and less than 10%)
CCOC(=O)c1ccccc1S(=O)(=O)NC(=O)Nc1nc(Cl)cc(OC)n1 [Chlorimuron-ethyl],phytotoxicity GLXMA,soybean (GLXMA) [1]; 6.3 gai/ha,0 (Herbicidal effect or phytotoxicity of at least 0% and less than 10%)
same,phytotoxicity ZEAMX,corn (ZEAMX) [2]; 6.3 gai/ha,4 (Herbicidal effect or phytotoxicity of at least 40% and less than 50%)
CCCN(CCC)C(=O)SCc1ccccc1 [Prosulfocarb],herbicidal effect STEME,common chickweed (STEME) [6]; 1600 gai/ha,5 (Herbicidal effect or phytotoxicity of at least 50% and less than 60%)
same,herbicidal effect ECHCG,barnyardgrass (ECHCG); 1600 gai/ha,2 (Herbicidal effect or phytotoxicity of at least 20% and less than 30%)
same,herbicidal effect CHEAL,[7]; 1600 gai/ha,5 (Herbicidal effect or phytotoxicity of at least 50% and less than 60%)
CCOC(=O)C(C)Oc1ccc(Oc2cnc3cc(Cl)ccc3n2)cc1 (stereo not shown) [Quizalofop-ethyl],phytotoxicity GLXMA,soybean (GLXMA) [1]; 25 gai/ha,0 (Herbicidal effect or phytotoxicity of at least 0% and less than 10%)
same,phytotoxicity ZEAMX,corn (ZEAMX) [2]; 25 gai/ha,10 (Herbicidal effect or phytotoxicity of 100%)
COc1cc(OC)nc(Oc2cccc(Oc3nc(OC)cc(OC)n3)c2C(=O)O)n1 [Bispyribac-sodium],phytotoxicity GLXMA,soybean (GLXMA) [1]; 12.5 gai/ha,9 (Herbicidal effect or phytotoxicity of at least 90% and less than 100%)
same,phytotoxicity ZEAMX,corn (ZEAMX) [2]; 12.5 gai/ha,0 (Herbicidal effect or phytotoxicity of at least 0% and less than 10%)
CC1COc2ccccc2N1C(=O)C(Cl)Cl (stereo not shown) [Benoxacor],phytotoxicity against corn ZEAMX,corn (ZEAMX) [8]; 50 gai/ha,0 (Herbicidal effect or phytotoxicity of at least 0% and less than 10%)
O=C(Nc1ccc(F)cc1)c1cccc(Oc2cccc(C(F)(F)F)c2)n1 [Picolinafen],herbicidal effect STEME,common chickweed (STEME) [9]; 16 gai/ha,5 (Herbicidal effect or phytotoxicity of at least 50% and less than 60%)
same,herbicidal effect VERPE,[10]; 16 gai/ha,6 (Herbicidal effect or phytotoxicity of at least 60% and less than 70%)
same,phytotoxicity TRZAW,wheat (TRZAW); 16 gai/ha,0 (Herbicidal effect or phytotoxicity of at least 0% and less than 10%)
CNc1cnn(-c2cccc(C(F)(F)F)c2)c(=O)c1Cl [Norflurazon],phytotoxicity GLXMA,soybean (GLXMA) [3]; 400 gai/ha,1 (Herbicidal effect or phytotoxicity of at least 10% and less than 20%)
same,phytotoxicity ZEAMX,corn (ZEAMX) [4]; 400 gai/ha,9 (Herbicidal effect or phytotoxicity of at least 90% and less than 100%)
"Cn1nc(C(F)(F)F)c(CS(=O)(=O)C2=NOC(C)(C)C2)c1OC(F)F [3-0054, 3-[(5-difluoromethoxy-1-methyl-3-trifluoromethylpyrazol-4-yl)methylsulfonyl]-4,5-dihydro-5,5-dimethylisoxazole]",herbicidal effect STEME,common chickweed (STEME) [6]; 62.5 gai/ha,5 (Herbicidal effect or phytotoxicity of at least 50% and less than 60%)
same,herbicidal effect ECHCG,barnyardgrass (ECHCG); 62.5 gai/ha,10 (Herbicidal effect or phytotoxicity of 100%)
same,herbicidal effect STEME,common chickweed (STEME) [9]; 18.8 gai/ha,5 (Herbicidal effect or phytotoxicity of at least 50% and less than 60%)
same,herbicidal effect LOLMU,italian ryegrass (LOLMU),8 (Herbicidal effect or phytotoxicity of at least 80% and less than 90%)
same,herbicidal effect VERPE,[10]; 18.8 gai/ha,7 (Herbicidal effect or phytotoxicity of at least 70% and less than 80%)
same,herbicidal effect STEME,common chickweed (STEME) [11],4 (Herbicidal effect or phytotoxicity of at least 40% and less than 50%)
same,herbicidal effect CHEAL,[7]; 62.5 gai/ha,4 (Herbicidal effect or phytotoxicity of at least 40% and less than 50%)
C[C@H](NC(=O)[C@H](C)NC(=O)[C@@H](N)CCP(C)(=O)O)C(=O)O [Bilanafos],phytotoxicity GLXMA,soybean (GLXMA) [1]; 1000 gai/ha,9 (Herbicidal effect or phytotoxicity of at least 90% and less than 100%)
same,phytotoxicity ZEAMX,corn (ZEAMX) [2]; 1000 gai/ha,9 (Herbicidal effect or phytotoxicity of at least 90% and less than 100%)
CC1(C)CON(Cc2ccccc2Cl)C1=O [Clomazone],phytotoxicity GLXMA,soybean (GLXMA) [3]; 200 gai/ha,0 (Herbicidal effect or phytotoxicity of at least 0% and less than 10%)
CCCN(CCC)c1c([N+](=O)[O-])cc(C(F)(F)F)cc1[N+](=O)[O-] [Trifluralin],herbicidal effect STEME,common chickweed (STEME) [9]; 250 gai/ha,10 (Herbicidal effect or phytotoxicity of 100%)
same,herbicidal effect VERPE,[10]; 250 gai/ha,7 (Herbicidal effect or phytotoxicity of at least 70% and less than 80%)
same,phytotoxicity TRZAW,wheat (TRZAW); 250 gai/ha,0 (Herbicidal effect or phytotoxicity of at least 0% and less than 10%)
C[n+]1ccc(-c2cc[n+](C)cc2)cc1 [Paraquat],phytotoxicity GLXMA,soybean (GLXMA) [1]; 500 gai/ha,10 (Herbicidal effect or phytotoxicity of 100%)
same,phytotoxicity ZEAMX,corn (ZEAMX) [2]; 500 gai/ha,6 (Herbicidal effect or phytotoxicity of at least 60% and less than 70%)
CC(C)c1ccc(NC(=O)N(C)C)cc1 [Isoproturon],herbicidal effect STEME,common chickweed (STEME) [9]; 375 gai/ha,6 (Herbicidal effect or phytotoxicity of at least 60% and less than 70%)
same,herbicidal effect VERPE,[10]; 375 gai/ha,5 (Herbicidal effect or phytotoxicity of at least 50% and less than 60%)
COC(=O)CSc1cc(/N=c2\sc(=O)n3n2CCCC3)c(F)cc1Cl [Fluthiacet-methyl],phytotoxicity GLXMA,soybean (GLXMA) [1]; 10 gai/ha,0 (Herbicidal effect or phytotoxicity of at least 0% and less than 10%)
same,phytotoxicity ZEAMX,corn (ZEAMX) [2]; 10 gai/ha,0 (Herbicidal effect or phytotoxicity of at least 0% and less than 10%)
CS(=O)(=O)c1ccc(C(=O)C2C(=O)CCCC2=O)c(Cl)c1 [Sulcotrione],phytotoxicity against corn ZEAMX,corn (ZEAMX) [8]; 1000 gai/ha,1 (Herbicidal effect or phytotoxicity of at least 10% and less than 20%)
same,phytotoxicity GLXMA,soybean (GLXMA) [1]; 25 gai/ha,6 (Herbicidal effect or phytotoxicity of at least 60% and less than 70%)
same,phytotoxicity ZEAMX,corn (ZEAMX) [2]; 25 gai/ha,0 (Herbicidal effect or phytotoxicity of at least 0% and less than 10%)
CCNc1nc(Cl)nc(NC(C)C)n1 [Atrazine],phytotoxicity against corn ZEAMX,corn (ZEAMX) [8]; 2500 gai/ha,0 (Herbicidal effect or phytotoxicity of at least 0% and less than 10%)

# Source: US8283291B2, “Herbicidal composition” (Kumiai Chemical Industry Co., Ltd., priority 2006, dated 2012)
